Patent US20230374038A1, “MODULATORS OF CYSTIC FIBROSIS TRANSMEMBRANE CONDUCTANCE REGULATOR” (VERTEX PHARMACEUTICALS INCORPORATED, priority 2020, published 2023)

Biological target: T1, CFTR (Homo sapiens, UniProt P13569, DEL508-508)
T1 construct: endogenous in cells; host or cells: primary human bronchial epithelial cells, F508del/MF genotype
Test: HBE Assay: Ussing chamber assay of CFTR-mediated short-circuit currents in F508del/MF-HBE cells with 1 μM Ivacaftor
Format: cell-based
Settings: range of concentrations with 1 μM Ivacaftor, 18-24 hours, 20% human serum
In short: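 F508del/MF-HBE cells at air-liquid interface >14 days were incubated 18-24 h at 37° C with corrector (concentration range or fixed 10 μM) plus 1 μM Ivacaftor in 20% human serum, compounds kept throughout. Ussing chamber, Vhold=0 mV, 37° C, apical amiloride 30 μM; ISC (μA/cm^2) from peak 20 μM forskolin response to steady state after CFTR inhibitor cocktail.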

T1 sequence (P13569 with tags, fused parts or gaps DEL508-508): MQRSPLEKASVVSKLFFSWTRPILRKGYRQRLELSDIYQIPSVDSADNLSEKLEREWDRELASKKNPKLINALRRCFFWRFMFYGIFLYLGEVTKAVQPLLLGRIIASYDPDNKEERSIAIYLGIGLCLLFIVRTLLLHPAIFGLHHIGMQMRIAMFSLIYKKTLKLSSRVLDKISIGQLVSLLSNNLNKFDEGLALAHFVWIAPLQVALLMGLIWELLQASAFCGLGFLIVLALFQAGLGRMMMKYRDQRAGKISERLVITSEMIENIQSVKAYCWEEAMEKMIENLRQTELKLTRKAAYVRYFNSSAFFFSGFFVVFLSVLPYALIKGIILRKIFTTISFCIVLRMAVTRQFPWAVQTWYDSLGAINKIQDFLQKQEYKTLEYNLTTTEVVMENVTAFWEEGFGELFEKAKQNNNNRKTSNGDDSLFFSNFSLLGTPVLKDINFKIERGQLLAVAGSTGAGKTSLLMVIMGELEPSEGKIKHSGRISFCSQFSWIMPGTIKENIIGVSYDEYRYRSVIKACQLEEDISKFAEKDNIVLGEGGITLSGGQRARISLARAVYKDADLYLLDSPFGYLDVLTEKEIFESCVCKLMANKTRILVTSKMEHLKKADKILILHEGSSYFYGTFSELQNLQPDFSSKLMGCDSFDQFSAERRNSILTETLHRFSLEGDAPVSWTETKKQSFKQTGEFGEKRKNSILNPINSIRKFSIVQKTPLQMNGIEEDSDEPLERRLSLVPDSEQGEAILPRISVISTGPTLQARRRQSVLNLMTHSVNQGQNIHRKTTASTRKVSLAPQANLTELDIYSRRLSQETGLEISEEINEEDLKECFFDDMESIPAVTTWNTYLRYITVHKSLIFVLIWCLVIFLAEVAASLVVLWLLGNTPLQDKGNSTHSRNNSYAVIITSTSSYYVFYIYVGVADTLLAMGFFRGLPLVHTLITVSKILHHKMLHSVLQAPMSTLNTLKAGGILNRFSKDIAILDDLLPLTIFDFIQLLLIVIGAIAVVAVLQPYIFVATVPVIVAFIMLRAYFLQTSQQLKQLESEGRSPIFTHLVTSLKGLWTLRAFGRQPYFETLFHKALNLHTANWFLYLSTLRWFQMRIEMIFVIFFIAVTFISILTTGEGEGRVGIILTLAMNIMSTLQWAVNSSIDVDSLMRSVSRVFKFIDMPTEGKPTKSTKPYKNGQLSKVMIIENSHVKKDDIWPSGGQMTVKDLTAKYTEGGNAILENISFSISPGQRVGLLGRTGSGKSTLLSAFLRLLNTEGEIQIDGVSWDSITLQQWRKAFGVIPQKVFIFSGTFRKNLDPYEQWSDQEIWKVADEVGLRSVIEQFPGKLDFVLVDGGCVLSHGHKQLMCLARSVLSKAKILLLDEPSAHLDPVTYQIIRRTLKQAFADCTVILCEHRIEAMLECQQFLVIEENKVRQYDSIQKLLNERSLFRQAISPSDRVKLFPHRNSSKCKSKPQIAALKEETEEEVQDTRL

EC50 [nM]	SMILES
< 1000	Cc1cccc(C)c1-c1nc2nc(c1F)OC[C@@H](CC(C)C)N(Cc1ncc(OC3CCC3)cn1)C(=O)c1cccc(c1)S(=O)(=O)N2 [Compound 338]
< 1000	Cc1cccc(C)c1-c1nc2nc(c1F)OC[C@@H](CC(C)(C)C)N(Cc1ncc(OC(C)C)cn1)C(=O)c1cccc(c1)S(=O)(=O)N2 [Compound 335]
< 1000	Cc1cccc(OC(C)C)c1-c1nc2nc(c1C)OC[C@@H](CC(C)(C)C)N(Cc1cncc(N(C)CC(C)(C)C)n1)C(=O)c1cccc(c1)S(=O)(=O)N2 (atropisomer, axis not shown) [Compound 332]
< 1000	Cc1cccc(CC(C)(C)C)c1-c1nc2nc(c1C)OC[C@@H](CC(C)(C)C)N(Cc1ncc(OC(C)C)cn1)C(=O)c1cccc(c1)S(=O)(=O)N2 (atropisomer, axis not shown) [Compound 351]

Same assay, conditions: single fixed concentration of 10 μM with 1 μM Ivacaftor, 18-24 hours, 20% human serum

HBE Activity at 10 μM (%)	SMILES
+++ (+++ is >60%)	Cc1cccc(CC(C)(C)C)c1-c1nc2nc(c1C)OC[C@@H](CC(C)(C)C)N(Cc1ncc(OC(C)C)cn1)C(=O)c1cccc(c1)S(=O)(=O)N2 (atropisomer, axis not shown) [Compound 351]

Same assay, conditions: single fixed concentration of 10 μM, with 1 μM Ivacaftor, 20% human serum

HBE Activity at 10 μM	SMILES
+++ (+++ is >600%)	Cc1cccc(CC2CCCC2)c1-c1nc2nc(c1C)OC[C@@H](CC(C)(C)C)N(Cc1nccc(N(C)C(C)C)n1)C(=O)c1cccc(c1)S(=O)(=O)N2 (atropisomer, axis not shown) [Compound 265]
+++ (+++ is >600%)	Cc1cccc(CC(C)C)c1-c1nc2nc(c1C)OC[C@@H](CC(C)C)N(Cc1cnc(C3CCOCC3)cn1)C(=O)c1cccc(c1)S(=O)(=O)N2 (atropisomer, axis not shown) [Compound 315]
+++ (+++ is >600%)	Cc1cccc(C(C)C)c1-c1nc2nc(c1C)OC[C@@H](CC(C)(C)C)N(Cc1cnc(C3CCOCC3)cn1)C(=O)c1cccc(c1)S(=O)(=O)N2 (atropisomer, axis not shown) [Compound 319]

Further lines, the molecule ahead of its results:

SMILES	HBE Activity at 10 μM
Cc1cccc(CC(C)C)c1-c1nc2nc(c1C(F)(F)F)OC[C@@H](CC(C)(C)C)N(Cc1ccc(N3CCOCC3)cn1)C(=O)c1cccc(c1)S(=O)(=O)N2 (atropisomer, axis not shown) [Compound 247]	++ (++ is 30-60%)
Cc1cccc(CC(C)C)c1-c1nc2nc(c1C)OC[C@@H](CC(C)(C)C)NC(=O)c1cccc(c1)S(=O)(=O)N2 (atropisomer, axis not shown) [Compound 226]	+++ (+++ is >600%)
Cc1cccc(CC2CCCC2)c1-c1nc2nc(c1C)OC[C@@H](CC(C)(C)C)N(Cc1cccc(N3CCC[C@H]3C)n1)C(=O)c1cccc(c1)S(=O)(=O)N2 (atropisomer, axis not shown) [Compound 269]	+++ (+++ is >600%)
Cc1cccc(CC2CCOCC2)c1-c1nc2nc(c1C)OC[C@@H](CC(C)(C)C)N(Cc1ccc(N3CCOCC3)cn1)C(=O)c1cccc(c1)S(=O)(=O)N2 (atropisomer, axis not shown) [Compound 274]	++ (++ is 30-60%)

Same assay, conditions: with 1 μM Ivacaftor, 18-24 hours, 20% human serum

EC50 [nM]	HBE Max Activity	SMILES
< 1000	+++ (+++ is >600%)	Cc1cccc(CC2CCCCC2)c1-c1nc2nc(c1C)OC[C@@H](CC(C)(C)C)N(Cc1ncc(N3CCOCC3)cn1)C(=O)c1cccc(c1)S(=O)(=O)N2 (atropisomer, axis not shown) [Compound 305]
< 1000	+++ (+++ is >600%)	Cc1cccc(C)c1-c1nc2nc(c1C)OC[C@@H](CC(C)C)N(Cc1ncc(N3CCC(C)(C)CC3)cn1)C(=O)c1cccc(c1)S(=O)(=O)N2 [Compound 198]
< 1000	+++ (+++ is >600%)	Cc1cccc(CC2CCCCC2)c1-c1nc2nc(c1C)OC[C@@H](CC(C)(C)C)N(Cc1ncc(N3CC(C)(C)C3)cn1)C(=O)c1cccc(c1)S(=O)(=O)N2 (atropisomer, axis not shown) [Compound 253]
< 1000	+++ (+++ is >600%)	Cc1cccc(CC(C)C)c1-c1nc2nc(c1C)OC[C@@H](CC(C)(C)C)N(Cc1ncc(CC(C)C)cn1)C(=O)c1cccc(c1)S(=O)(=O)N2 (atropisomer, axis not shown) [Compound 264]
1000 to 3000	+++ (+++ is >600%)	Cc1cccc(CC2CCCCC2)c1-c1nc2nc(c1C)OC[C@@H](CC(C)(C)C)N(Cc1ccc(OC(C)C)cn1)C(=O)c1cccc(c1)S(=O)(=O)N2 (atropisomer, axis not shown) [Compound 279]
< 1000	+++ (+++ is >600%)	Cc1cccc(CC(C)C)c1-c1nc2nc(c1C)OC[C@@H](CC(C)C)N(Cc1cnc(C3CCOCC3)cn1)C(=O)c1cccc(c1)S(=O)(=O)N2 (atropisomer, axis not shown) [Compound 314]
< 1000	+++ (+++ is >600%)	Cc1cccc(CC(C)C)c1-c1nc2nc(c1C)OC[C@@H](C)N(Cc1ncc(N3CCC(C)(C)C3)cn1)C(=O)c1cccc(c1)S(=O)(=O)N2 (atropisomer, axis not shown) [Compound 242]
< 1000	+++ (+++ is >600%)	Cc1cccc(C)c1-c1nc2nc(c1C)OC[C@@H](CC(C)C)N(Cc1ncc(N3CCC(C)(C)C3)cn1)C(=O)c1cccc(c1)S(=O)(=O)N2 [Compound 199]
< 1000	+++ (+++ is >600%)	Cc1cccc(CC2CCCCC2)c1-c1nc2nc(c1C)OC[C@@H](CC(C)(C)C)N(Cc1ncc(C3CCCCC3)cn1)C(=O)c1cccc(c1)S(=O)(=O)N2 (atropisomer, axis not shown) [Compound 276]
< 1000	+++ (+++ is >600%)	Cc1cccc(C)c1-c1nc2nc(c1C)OC[C@@H](CC(C)(C)C)N(Cc1ccc(N3CCCCC3)cn1)C(=O)c1cccc(c1)S(=O)(=O)N2 [Compound 85]
< 1000	+++ (+++ is >600%)	Cc1cccc(CC(C)C)c1-c1nc2nc(c1C(F)(F)F)OC[C@@H](CC(C)(C)C)N(Cc1ncc(N3CCOCC3)cn1)C(=O)c1cccc(c1)S(=O)(=O)N2 (single isomer, unassigned) [Compound 212]
< 1000	+++ (+++ is >600%)	Cc1cccc(CC2CCCC2)c1-c1nc2nc(c1C)OC[C@@H](CC(C)(C)C)N(Cc1ncc(CC(C)C)cn1)C(=O)c1cccc(c1)S(=O)(=O)N2 (atropisomer, axis not shown) [Compound 268]
< 1000	+++ (+++ is >600%)	Cc1cccc(CC(C)C)c1-c1nc2nc(c1C)OC[C@@H](CC(C)(C)C)N(Cc1ncc(N(C)CC(C)(C)C)cn1)C(=O)c1cccc(c1)S(=O)(=O)N2 (single isomer, unassigned) [Compound 211]
< 1000	+++ (+++ is >600%)	Cc1cccc(CC(C)C)c1-c1nc2nc(c1C)OC[C@@H](CC(C)C)N(Cc1ncc(N3CCC(C)(C)C3)cn1)C(=O)c1cccc(c1)S(=O)(=O)N2 (atropisomer, axis not shown) [Compound 241]
< 1000	+++ (+++ is >600%)	Cc1cccc(CC2CCCCC2)c1-c1nc2nc(c1C)OC[C@@H](CC(C)(C)C)N(Cc1ncc(N3CCOCC3)cn1)C(=O)c1cccc(c1)S(=O)(=O)N2 (atropisomer, axis not shown) [Compound 306]

More lines, now with the values behind:

SMILES	EC50 [nM]	HBE Max Activity
Cc1cccc(CC(C)C)c1-c1nc2nc(c1C)OC[C@@H](CC(C)(C)C)N(Cc1ccc(N3CCOCC3)cn1)C(=O)c1cccc(c1)S(=O)(=O)N2 (atropisomer, axis not shown) [Compound 298]	< 1000	+++ (+++ is >600%)
Cc1cccc(C)c1-c1nc2nc(c1C)OC[C@@H](C(C)C)N(Cc1cncc(N(C)CC(C)(C)C)n1)C(=O)c1cccc(c1)S(=O)(=O)N2 [Compound 195]	< 1000	+++ (+++ is >600%)
Cc1cccc(C(C)C)c1-c1nc2nc(c1C)OC[C@@H](CC(C)(C)C)N(Cc1ccc(N3CCOCC3)cn1)C(=O)c1cccc(c1)S(=O)(=O)N2 (atropisomer, axis not shown) [Compound 299]	< 1000	+++ (+++ is >600%)
CCc1cccc(C)c1-c1nc2nc(c1C)OC[C@@H](CC(C)(C)C)N(Cc1ccc(N3CCOCC3)cn1)C(=O)c1cccc(c1)S(=O)(=O)N2 (atropisomer, axis not shown) [Compound 286]	< 1000	+++ (+++ is >600%)
Cc1cccc(CC2CCCCC2)c1-c1nc2nc(c1C)OC[C@@H](CC(C)(C)C)N(Cc1cccc(N(C(C)C)C(C)C)n1)C(=O)c1cccc(c1)S(=O)(=O)N2 (atropisomer, axis not shown) [Compound 256]	< 1000	+++ (+++ is >600%)
Cc1cccc(CC2CCCCC2)c1-c1nc2nc(c1C)OC[C@@H](CC(C)(C)C)N(Cc1cccc(N(C)C(C)C)n1)C(=O)c1cccc(c1)S(=O)(=O)N2 (atropisomer, axis not shown) [Compound 255]	< 1000	+++ (+++ is >600%)
Cc1cccc(C)c1-c1nc2nc(c1C)OC[C@@H](CC(C)(C)C)N(c1cnn(C)c1Br)C(=O)c1cccc(c1)S(=O)(=O)N2 [Compound 56, (11R)-12-(5-Bromo-1-methyl-pyrazol-4-yl)-6-(2,6-dimethylphenyl)-11-(2,2-dimethylpropyl)-7-methyl-2,2-dioxo-9-oxa-2λ^6-thia-3,5,12,19-tetrazatricyclo[12.3.1.14,8]nonadeca-1(18),4(19),5,7,14,16-hexaen-13-one]	< 1000	+++ (+++ is >600%)
Cc1c2nc(nc1-c1ccccc1C(C)(C)C)NS(=O)(=O)c1cccc(c1)C(=O)N(Cc1ccc(N3CCOCC3)cn1)[C@H](CC(C)(C)C)CO2 [Compound 181]	< 1000	+++ (+++ is >600%)
COCCN(C)c1ccc(CN2C(=O)c3cccc(c3)S(=O)(=O)Nc3nc(c(C)c(-c4c(C)cccc4CC4CCCCC4)n3)OC[C@H]2CC(C)(C)C)nc1 (atropisomer, axis not shown) [Compound 290]	< 1000	+++ (+++ is >600%)

Same assay, conditions: with 1 μM Ivacaftor, 18-24 hours, 20% human serum, compared to known Vertex corrector with 18 μM Tezacaftor and 1 μM Ivacaftor, read-out: HBE Max activity (%)

Emax [%]	SMILES
> 60	Cc1cccc(C)c1-c1nc2nc(c1F)OC[C@@H](CC(C)C)N(Cc1ncc(OC3CCC3)cn1)C(=O)c1cccc(c1)S(=O)(=O)N2 [Compound 338]
> 60	Cc1cccc(C)c1-c1nc2nc(c1F)OC[C@@H](CC(C)(C)C)N(Cc1ncc(OC(C)C)cn1)C(=O)c1cccc(c1)S(=O)(=O)N2 [Compound 335]
> 60	Cc1cccc(OC(C)C)c1-c1nc2nc(c1C)OC[C@@H](CC(C)(C)C)N(Cc1cncc(N(C)CC(C)(C)C)n1)C(=O)c1cccc(c1)S(=O)(=O)N2 (atropisomer, axis not shown) [Compound 332]
> 60	Cc1cccc(CC(C)(C)C)c1-c1nc2nc(c1C)OC[C@@H](CC(C)(C)C)N(Cc1ncc(OC(C)C)cn1)C(=O)c1cccc(c1)S(=O)(=O)N2 (atropisomer, axis not shown) [Compound 351]
